experiment: recombinant barcode read abundance after kanamycin selection (control-corrected) (log10(CPM+1)); higher = more efficient recombination; sequences stand for … in AGTGCAGAGAAAATCGGCCAGTTTTCTCTGCCTGCAGTCCGCATGCCGT…AGATTTATGCAGCGGACTGCCTTTCTCCCAAAGTGATAAACCGGACAGTATCATGGACCGGTTTTCCCGGTAATCCGTATTTGCAAGGTTGGTTTCACT; site = the 11-nt target
How it was run: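 IS621 bridge RNA target-binding loops were paired with targets in a pooled library tested in E. coli. After co-electroporation with a donor plasmid, cells were plated in two replicates on chloramphenicol/ampicillin LB agar (control) and on chloramphenicol/ampicillin/kanamycin carrying 0.1 mM IPTG. Barcodes at recombinant junctions were counted as counts per million, averaged and control-corrected to give recombination efficiency. Values are log10(CPM+1).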
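Note: IS621 recombinase and bridge RNA in Escherichia coli cells.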

Compared with “TAGCCTACTTGGGTTCTAACCTGTTGCCG (site TAGCCTACTCG)”, “TAGCCTACTTGGGTTCTAACCTGTTGCCG (site TAGGCTCCTCG)” is lower in “recombinant barcode read abundance (log10)” value: 0.725 for the first, 0.0184 for the second.

Going from “TAGCCTACTTGGGTTCTAACCTGTTGCGA (site TAGCCTACTAC)” to “TAGCCTACTTGGGTTCTAACCTGTTGCGA (site TAGCCTACTCC)”, the “recombinant barcode read abundance (log10)” value rises from 0.0304 to 0.416.

First: TAGCCTACTTGGGTTCTAACCTGTTGCGA (site TAGCCTACTGC)
Second: TAGCCTACTTGGGTTCTAACCTGTTGCGA (site TAGCCTACTTC)
The “recombinant barcode read abundance (log10)” value of the first is lower: 0.00843 for the first, 1.2 for the second.

“TAGCCTACTTGGGTTCTAACCTGTTGCGC (site TAGCCTACTAC)” and “TAGCCTACTTGGGTTCTAACCTGTTGCGC (site TAGCCTACTCC)” are within 0.2 log units of each other in “recombinant barcode read abundance (log10)” value: 0.0597 for the first, 0.0856 for the second.

Compared with “TAGCCTACTTGGGTTCTAACCTGTTGCGC (site TAGCCTACTGC)”, “TAGCCTACTTGGGTTCTAACCTGTTGCGC (site TAGCCTACTTC)” is lower in “recombinant barcode read abundance (log10)” value: 1.84 for the first, 0.0255 for the second.

Going from “TAGCCTACTTGGGTTCTAACCTGTTGCGT (site TAGCCTACTAC)” to “TAGCCTACTTGGGTTCTAACCTGTTGCGT (site TAGCCTACTCC)”, the “recombinant barcode read abundance (log10)” value falls from 0.581 to 0.0265.

“TAGCCTACTTGGGTTCTAACCTGTTGCGT (site TAGCCTACTGC)” and “TAGCCTACTTGGGTTCTAACCTGTTGCGT (site TAGCCTACTTC)” are within 0.2 log units of each other in “recombinant barcode read abundance (log10)” value: 0.0357 for the first, 0 for the second.

Going from “TAGCCTTCTTGGGTTCTAACCTGTTGCAG (site TAGCCTTCTCT)” to “TAGCCTTCTTGGGTTCTAACCTGTTGCAG (site TAGGCGTCTCT)”, the “recombinant barcode read abundance (log10)” value falls from 1.14 to 0.0752.

“TAGCGGACTTGGGTTCTAACCTGTTGCCT (site TAGCAGACTAG)” and “TAGCGGACTTGGGTTCTAACCTGTTGCCT (site TAGCCGACTAG)” are within 0.2 log units of each other in “recombinant barcode read abundance (log10)” value: 0.106 for the first, 0 for the second.

First: TAGCGGACTTGGGTTCTAACCTGTTGCCT (site TAGCGGACTAG)
Second: TAGCGGACTTGGGTTCTAACCTGTTGCCT (site TAGCTGACTAG)
The “recombinant barcode read abundance (log10)” value of the first is higher: 1.28 for the first, 0.0737 for the second.

Going from “TAGCGTCCTTGGGTTCTAACCTGTTGCAC (site TAGCGTCCTGT)” to “TAGCGTCCTTGGGTTCTAACCTGTTGCAC (site TCGCGTCCTTT)”, the “recombinant barcode read abundance (log10)” value falls from 1.11 to 0.157.

Compared with “TAGCTCCCTTGGGTTCTAACCTGTTGCCA (site TAGCTCCCTAG)”, “TAGCTCCCTTGGGTTCTAACCTGTTGCCA (site TAGCTCCCTCG)” is lower in “recombinant barcode read abundance (log10)” value: 0.676 for the first, 0.0851 for the second.

Compared with “TAGCTCCCTTGGGTTCTAACCTGTTGCCA (site TAGCTCCCTGG)”, “TAGCTCCCTTGGGTTCTAACCTGTTGCCA (site TAGCTCCCTTG)” is higher in “recombinant barcode read abundance (log10)” value: 0.0734 for the first, 0.662 for the second.

Going from “TAGCTTACTTGGGTTCTAACCTGTTGCCG (site TAACTTACTAG)” to “TAGCTTACTTGGGTTCTAACCTGTTGCCG (site TAGCTTACTCG)”, the “recombinant barcode read abundance (log10)” value rises from 0.114 to 0.523.

Compared with “TAGGATACTTGGGTTCTAACCTGTTGCAA (site TAGGATACTAT)”, “TAGGATACTTGGGTTCTAACCTGTTGCAA (site TAGGATACTCT)” is higher in “recombinant barcode read abundance (log10)” value: 0.0732 for the first, 0.401 for the second.

First: TAGGATACTTGGGTTCTAACCTGTTGCAA (site TAGGATACTGT)
Second: TAGGATACTTGGGTTCTAACCTGTTGCAA (site TAGGATACTTT)
The “recombinant barcode read abundance (log10)” value of the first is lower: 0.0992 for the first, 1.98 for the second.

First: TAGGATTCTTGGGTTCTAACCTGTTGCGC (site ACCATACCTAT)
Second: TAGGATTCTTGGGTTCTAACCTGTTGCGC (site TAGGATTCTGC)
The “recombinant barcode read abundance (log10)” value of the first is lower: 0.114 for the first, 2.55 for the second.

Compared with “TAGGATTCTTGGGTTCTAACCTGTTGCGT (site TAGGATGCTAC)”, “TAGGATTCTTGGGTTCTAACCTGTTGCGT (site TAGGATTCTAC)” is higher in “recombinant barcode read abundance (log10)” value: 0.144 for the first, 2.61 for the second.

“TAGGCATCTTGGGTTCTAACCTGTTGCTC (site TAGACATCTGA)” and “TAGGCATCTTGGGTTCTAACCTGTTGCTC (site TAGCCATCTGA)” are within 0.2 log units of each other in “recombinant barcode read abundance (log10)” value: 0.206 for the first, 0.36 for the second.

Going from “TAGGCATCTTGGGTTCTAACCTGTTGCTC (site TAGGCATCTGA)” to “TAGGCATCTTGGGTTCTAACCTGTTGCTC (site TAGTCATCTGA)”, the “recombinant barcode read abundance (log10)” value falls from 0.95 to 0.115.

First: TAGGCCACTTGGGTTCTAACCTGTTGCTT (site TAGGCCACTAA)
Second: TAGGCCACTTGGGTTCTAACCTGTTGCTT (site TAGGCCACTAC)
The “recombinant barcode read abundance (log10)” value of the first is higher: 1.61 for the first, 1.17 for the second.

For “TAGGCCACTTGGGTTCTAACCTGTTGCTT (site TAGGCCACTAG)”, the “recombinant barcode read abundance (log10)” value was 0.36.
